From the NIST ThermoML archive (doi:10.1016/j.tca.2008.03.009)
± gives the expanded uncertainty stated by the source.

Assay: molar heat capacity at constant pressure
Details: 328.1 K; 101.33 kPa; Crystal; Small sample (50 mg) DSC

[BH4-].[Na+] [sodium tetrahydroborate]
molar heat capacity at constant pressure: 111.61 ± 2.3 J/K/mol
